Measured values as given in US12083105B2, “Compositions and methods for treating adult-onset neuronal ceroid lipofuscinosis (Kufs disease)” (CORNELL UNIVERSITY, priority 2020, dated 2024).

Columns and labels:
[1] = system: SNAP-25; test: Total SNAP-25 levels in ANCL iNs (quantitative immunoblotting); type: cell-based, human; conditions: 72 h, compared to vehicle only control, FIG. 7B
Experimental: (§1) ANCL patient-derived fibroblasts were treated with 200 μM of L1 or Dfx, or vehicle (0.1% DMSO=Control) for 72 h, before measuring the UV-Vis absorbance spectra of immunoprecipitated CSPα eluted by trypsinization (solid lines). Spectra were re-read after 10 min of 0.1 N HCl treatment (dashed lines). The experiments shown in FIGS. 7B-7I, were conducted using ANCL fibroblasts converted to iNs using BAM+ND1 technique. […] Quantitative immunoblotting was used to measure levels of oligomerized and fully palmitoylated CSPα as well as total SNAP-25. Oligo=oligomers; Palm=palmitoylated. […] The interaction of CSPα with SNAP-25 in ANCL iNs was measured by immunoprecipitating SNAP-25 followed by quantitative immunoblotting of co-immunoprecipitated CSPα (normalized to SNAP-25 IP). Note that mainly CSPα monomers and not oligomers were detected bound to SNAP-25. Control=control sham IP without IgG. […] Turnover of SNAP-25 was determined by cycloheximide chase, while maintaining the iron-chelators or vehicle in the medium. […] In the experiments shown in FIGS. 7E-7G, ANCL iNs treated with L1, Dfx, or vehicle for 56 d and analyzed. […] The levels of lipofuscin were determined by ELISA. In the experiments shown in FIGS. 7H-7I 56 day old untreated ANCL iNs were treated with L1, Dfx, or vehicle, and analyzed. […]

[2] = system: CSPα with SNAP-25; test: Interaction of CSPα with SNAP-25 in ANCL iNs (SNAP-25 IP, co-IP of CSPα); type: cell-based, human; conditions: 72 h, compared to control, FIG. 7C
Experimental: as §1

[3] = system: ATP5G; test: ATP5G accumulation in ANCL iNs (quantitative immunoblotting); type: cell-based, human; conditions: for accumulation of ATP5G: ANCL iNs treated for 56 d (prevention), FIG. 7F; for ATP5G levels: added to ANCL iNs after 56 days of lipofuscin accumulation, followed 3 weeks (treatment), compared to control, FIG. 7H
Experimental: ANCL patient-derived fibroblasts were treated with 200 μM of L1 or Dfx, or vehicle (0.1% DMSO=Control) for 72 h, before measuring the UV-Vis absorbance spectra of immunoprecipitated CSPα eluted by trypsinization (solid lines). Spectra were re-read after 10 min of 0.1 N HCl treatment (dashed lines). The experiments shown in FIGS. 7B-7I, were conducted using ANCL fibroblasts converted to iNs using BAM+ND1 technique. […] Quantitative immunoblotting was used to measure levels of oligomerized and fully palmitoylated CSPα as well as total SNAP-25. Oligo=oligomers; Palm=palmitoylated. […] The interaction of CSPα with SNAP-25 in ANCL iNs was measured by immunoprecipitating SNAP-25 followed by quantitative immunoblotting of co-immunoprecipitated CSPα (normalized to SNAP-25 IP). Note that mainly CSPα monomers and not oligomers were detected bound to SNAP-25. Control=control sham IP without IgG. […] Turnover of SNAP-25 was determined by cycloheximide chase, while maintaining the iron-chelators or vehicle in the medium. […] In the experiments shown in FIGS. 7E-7G, ANCL iNs treated with L1, Dfx, or vehicle for 56 d and analyzed. […] The levels of lipofuscin were determined by ELISA. In the experiments shown in FIGS. 7H-7I 56 day old untreated ANCL iNs were treated with L1, Dfx, or vehicle, and analyzed. […] Data are from FIG. 7A representative of n=4, FIG. 7B n=4, FIG. 7C n=4, FIG. 7D n=7, FIG. 7F n=4, FIG. 7G n=4, FIG. 7H n=6, FIG. 7I n=3. In FIGS. 7B-7C and FIGS. 7F-7G *P<0.05; **P<0.01; ****P<0.0001 by two-tailed Student's t-test. #P<0.05 by Mann-Whitney-Wilcoxon U test. In FIG. 7D-7C and FIGS. 7H-7I **P<0.01; ***P<0.001; ****P<0.0001 by two-way ANOVA; ##P<0.01; ###P<0.001; ####P<0.0001 by Tukey's multiple comparisons test.
For SDS-PAGE, 10-15% Laemmli gels (10.3% T and 3.3% C) were used to separate proteins on Bio-Rad apparati. Proteins were transferred onto nitrocellulose (pore-size=[…]; GE Healthcare) and blocked with 5% w/v fat-free dry milk in tris buffered saline, pH 7.5 supplemented with 0.1% Tween 20 (TBS-T). Immunoblotting was performed by incubating the blocked membranes with primary antibodies in blocking buffer for 8-16 hours. Following 5 washes with TBS-Tween 20 (0.1%). Blots were incubated with secondary antibodies (goat anti-rabbit conjugated to IRDye […] or 800CW; LI-COR) at 1/5000 in blocking buffer for 1-3 hours. Immunoblots were washed 5× with TBS-T and dried, then scanned on Odyssey CLx (LI-COR) and quantified using Image-Studio software (LI-COR).
For ATPSG immunoblots, following the transfer, nitrocellulose membranes were dried and fixed for 15 min at room temperature in 0.2% glutaraldehyde in PBS. […]
(§2) Effect of iron chelators on the accumulation of lipofuscin was monitored by ELISA for lipofuscin or based on lipofuscin autofluorescence. […]

[4] = system: CSPα^L115R and CSPα^L116Δ; test: CSPα oligomerization and palmitoylation in CSPα−/− primary cortical neurons expressing ANCL mutants (SDS-PAGE, quantitative immunoblotting); type: cell-based, mice; conditions: 200 μM, 72 h, FIG. 3D; for oligomerization of CSPα^L115R and CSPα^L116Δ: vs vehicle (0.1% DMSO); for palmitoylation of CSPα^L115R and CSPα^L116Δ: vs vehicle
[5] = system: ANCL iNs; test: Lipofuscin autofluorescence in ANCL iNs; type: cell-based, human; conditions: ANCL iNs treated for 56 d from iN conversion (prevention); compared to control; FIG. 7E
Experimental: as §1, with “SNAP-25.” for “SNAP-25. Control=control sham IP without IgG.”
as §2

SMILES | SNAP-25 levels [1] | interaction of CSPα with SNAP-25 [2] | accumulation of ATP5G [3] | ATP5G levels [3] | oligomerization of CSPα^L115R and CSPα^L116Δ [4] | palmitoylation of CSPα^L115R and CSPα^L116Δ [4] | lipofuscin autofluorescence [5]
CC(=O)N(O)CCCCCNC(=O)CCC(=O)N(O)CCCCCNC(=O)CCC(=O)N(O)CCCCCN [Dfx, N′-[5-(Acetyl-hydroxy-amino)pentyl]-N-[5-[3-(5-aminopentyl-hydroxy-carbamoyl)propanoylamino]pentyl]-N-hydroxy-butane diamide] | augmented | improved | trend toward reduced accumulation | diminished down to similar levels as observed in the prevention experiments | reduced the oligomerization | improved | reduced
Cc1c(O)c(=O)ccn1C [L1, 3-hydroxy-1,2-dimethyl-4(1H)-pyridone] | augmented | improved | trend toward reduced accumulation | diminished down to similar levels as observed in the prevention experiments | reduced the oligomerization | improved | reduced
